Our source for the inhibition values is article PMC6934184, “Selective DNA-PKcs inhibition extends the therapeutic index of localized radiotherapy and chemotherapy” (The Journal of Clinical Investigation, 2019).

This assay has as its target T1, ALK (Homo sapiens, UniProt Q9UM73).
T1 construct: purchased Thermo Fisher Scientific (Life Technologies) SelectScreen
Nature of the assay: SelectScreen Z'LYTE. It counts as biochemical. The gist of the method: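 Percent values come from Thermo SelectScreen profiling of NU5455, combining activity and binding assays. CSF1R was run in Z'LYTE format at Km app ATP, and CAMK1 in Adapta format with ATP listed at 10.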

T1 sequence (Q9UM73 19-1620): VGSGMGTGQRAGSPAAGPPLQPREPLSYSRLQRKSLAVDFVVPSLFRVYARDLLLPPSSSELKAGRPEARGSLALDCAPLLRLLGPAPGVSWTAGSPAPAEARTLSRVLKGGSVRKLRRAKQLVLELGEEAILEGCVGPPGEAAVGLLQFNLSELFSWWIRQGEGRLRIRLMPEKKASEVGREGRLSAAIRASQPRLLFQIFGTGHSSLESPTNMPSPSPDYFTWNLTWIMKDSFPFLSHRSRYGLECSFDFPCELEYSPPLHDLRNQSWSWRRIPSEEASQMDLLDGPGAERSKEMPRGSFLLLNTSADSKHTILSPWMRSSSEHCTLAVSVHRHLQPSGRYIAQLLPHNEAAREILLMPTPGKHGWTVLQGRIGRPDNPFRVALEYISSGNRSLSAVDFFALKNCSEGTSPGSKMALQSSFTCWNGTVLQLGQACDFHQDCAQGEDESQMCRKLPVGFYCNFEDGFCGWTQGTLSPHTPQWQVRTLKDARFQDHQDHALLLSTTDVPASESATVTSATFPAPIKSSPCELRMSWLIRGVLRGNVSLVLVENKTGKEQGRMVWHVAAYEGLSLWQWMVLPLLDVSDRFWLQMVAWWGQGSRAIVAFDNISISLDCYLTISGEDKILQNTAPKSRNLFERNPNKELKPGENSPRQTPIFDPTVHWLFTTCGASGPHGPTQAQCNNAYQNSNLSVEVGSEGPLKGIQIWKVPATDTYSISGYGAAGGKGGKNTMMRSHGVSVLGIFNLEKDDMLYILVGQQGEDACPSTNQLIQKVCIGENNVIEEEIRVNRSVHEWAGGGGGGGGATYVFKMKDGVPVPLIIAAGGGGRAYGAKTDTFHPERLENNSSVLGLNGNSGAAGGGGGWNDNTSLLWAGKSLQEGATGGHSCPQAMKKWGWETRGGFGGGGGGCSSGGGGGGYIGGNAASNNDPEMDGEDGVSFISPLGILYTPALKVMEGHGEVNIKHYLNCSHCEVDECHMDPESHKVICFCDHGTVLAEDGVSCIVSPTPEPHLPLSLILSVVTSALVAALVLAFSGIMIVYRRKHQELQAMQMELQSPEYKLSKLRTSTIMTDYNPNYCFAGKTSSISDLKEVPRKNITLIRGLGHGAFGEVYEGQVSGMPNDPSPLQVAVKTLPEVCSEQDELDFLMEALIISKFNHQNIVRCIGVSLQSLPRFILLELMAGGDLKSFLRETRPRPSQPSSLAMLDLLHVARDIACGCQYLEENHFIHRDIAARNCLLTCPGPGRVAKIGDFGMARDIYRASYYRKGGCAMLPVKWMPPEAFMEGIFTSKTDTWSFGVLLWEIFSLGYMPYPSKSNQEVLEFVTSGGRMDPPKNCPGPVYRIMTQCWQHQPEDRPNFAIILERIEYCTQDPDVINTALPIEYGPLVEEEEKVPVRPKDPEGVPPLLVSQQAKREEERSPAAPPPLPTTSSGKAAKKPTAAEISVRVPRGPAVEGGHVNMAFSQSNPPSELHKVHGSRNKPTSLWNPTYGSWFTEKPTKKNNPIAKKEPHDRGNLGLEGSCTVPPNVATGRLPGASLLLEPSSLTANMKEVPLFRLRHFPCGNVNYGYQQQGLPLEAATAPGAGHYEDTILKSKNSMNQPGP

`CN(C(=O)CN1CCOCC1)c1ccc2sc3c(-c4cccc5c(=O)cc(N6CC7CCC(C6)O7)oc45)cccc3c2c1` [NU5455]: at 1 µM the inhibition was 17.3%.
